The text below walks through data of PMC7238232, “Acamprosate Is a Substrate of the Human Organic Anion Transporter (OAT) 1 without OAT3 Inhibitory Properties: Implications for Renal Acamprosate Secretion and Drug–Drug Interactions” (Pharmaceutics, 2020).

Test [1] relates to EAAT1. Conditions: Caco-2 cells, preliminary data; cited from earlier work.
The target of test [2] is T1, OAT3 (Homo sapiens, UniProt Q8TCC7).
T1 sequence (Q8TCC7 1-542): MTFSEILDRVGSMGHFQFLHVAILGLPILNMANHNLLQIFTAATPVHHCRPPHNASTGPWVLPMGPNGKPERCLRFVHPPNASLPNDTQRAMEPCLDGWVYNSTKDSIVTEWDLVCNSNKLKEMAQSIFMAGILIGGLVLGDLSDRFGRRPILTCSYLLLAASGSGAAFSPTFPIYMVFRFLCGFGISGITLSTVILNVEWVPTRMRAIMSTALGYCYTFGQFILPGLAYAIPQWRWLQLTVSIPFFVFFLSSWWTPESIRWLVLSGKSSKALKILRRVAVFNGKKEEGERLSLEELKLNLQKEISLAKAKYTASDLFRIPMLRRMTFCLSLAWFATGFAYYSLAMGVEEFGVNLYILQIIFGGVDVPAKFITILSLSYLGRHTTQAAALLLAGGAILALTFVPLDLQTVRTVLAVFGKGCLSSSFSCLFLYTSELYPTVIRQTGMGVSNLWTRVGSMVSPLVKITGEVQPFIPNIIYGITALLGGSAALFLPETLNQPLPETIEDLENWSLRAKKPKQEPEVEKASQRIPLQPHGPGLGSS
Description: [3H]-E3S uptake and its inhibition in HEK293-Flp-In OAT3 cells. Type of test: cell-based. How it is done:
All uptake experiments were performed on 24- or 96-well plates. Before the experiment initiation, the cells were incubated with either 500 or 200 µL∙well^−1 prewarmed buffer for 10 min at 37 °C in a microplate incubator (VWR International AB, Stockholm, Sweden), without shaking. […] The experiment was stopped by adding 200 µL∙well^−1 of ice-cold buffer and subsequent rinse three times with the same amount of buffer. In Lab. 1 the sample analysis of the OAT1/OAT3/mock studies consisted in removing the rinsing buffer and lysing the cells with 70 µL 1M NaOH, following by incubation for 60 min at 37 °C and 100 rpm. A total of 50 µL of cell lysate from each well was transferred to 96-well Luma plates bottom coated with dry scintillant. Then, 2∙20 µL of each donor and three 50 µL blank samples were applied on the same plate. The dry plates were covered with transparent seals and analyzed using a TopCount NXT Microplate Scintillation and Luminescence Counter (Perkin Elmer, Waltham, MA, USA). The remaining 20 µL cell lysate was neutralized with 20 µL 1M HCl∙well^−1, samples were mixed thoroughly and the total protein content in all the wells was measured using a BCA protein assay kit, microplate method, and a Tecan Safire II fluorometer (Tecan Austria GmbH, Grödig, Austria). For the experiments in Lab. 2, the cells were lysed by adding 200 µL 0.1% Triton X-100 and incubated for 5 min at 37 °C and 100 rpm. […] The total protein content was measured by using a BCA protein assay kit and a FLUOStar Omega fluorescence microplate reader (BMG Labtech, Ortenberg, Germany). The protein assay for the OAT3 and mock cell lines was performed in four independent wells of each cell line, seeded and treated in the same manner as the cells used in the uptake assay. For all the OAT1, OAT3, and mock isotope uptake studies, the radiolabelled tracer accumulation (pmol) in each well was calculated by first determining the activity of the isotope (DPM∙pmol^−1) from the radioactivity (DPM) of the donor sample divided by the theoretical isotope concentration (pmol), then dividing the total radioactivity in the well (DPM) to the specific activity of the isotope (DPM∙pmol^−1).
A range of preincubation solutions was prepared at the same concentrations of acamprosate applied in the inhibition assays. Acamprosate was dissolved in HBSS buffered with 10 mM HEPES and the pH was adjusted to 7.40 ± 0.01. The preincubation solutions were prewarmed to 37 °C and applied to the corresponding cells after removing the cell growth medium. The preincubation was done for 3 h, at 37 °C, without shaking. After the preincubation, the solutions were removed, and the inhibition experiment was performed as described in the Section 2.6.
The obtained intracellular amounts (pmol) were normalized to the assay time (min) and cell surface area (cm^2) or protein amount (mg protein) to obtain a term hereafter referred to as uptake rate. […] Assuming competitive interaction, equilibrium dissociation constants, Ki, were calculated from the IC50 value for each substrate/inhibitor pair, at substrate Km, using the Cheng–Prusoff equation [24].

“Also recorded” adds a separate entry of the source. Like-named read-outs stand apart in the source and are kept apart here. Where only a bound is given, the exact number is not on record here.

By IC50 is commonly meant the concentration at which inhibition is half-maximal.

With `CC(=O)NCCCS(=O)(=O)O` [acamprosate, acetylhomotaurinate], the “inhibition of substrate transport via EAAT1” value in test [1] is on record as “did not inhibit”. For the same compound, the IC50 in test [2] is over 10 mM; in test [2] (read-out: IC50, Estrone-3-Sulfate, input for DDI index, Table A1), over 10 mM. Further, the “effect on uptake of [3H]-E3S in OAT3 expressing cells” value in test [2] (0.02 µM [3H]-E3S, 200 µM E3S, 300 µM probenecid, 1000 or 10,000 µM acamprosate, Lab. 2) is listed as “did not affect”. Also, the “inhibition of [3H]-E3S uptake via OAT3, with and without 3 h preincubation” value in test [2] (all applied acamprosate concentrations, up to 10 mM) is “lack of inhibitory effect; also recorded: did not inhibit”.
